Values of other authors in US20090062391A1, “Use of a virucidal ointment in the nares for prevention of transmission and contraction of common colds” (priority 2007, published 2009).

Experiments:
[1] = tested on: viruses which cause colds; conditions: for effectiveness against viruses which cause colds: organic acid; for effectiveness at inactivating cold viruses: surfactant combined with organic acids
herpes simplex virus = conditions: Poli et al. [5]
rhabdovirus = conditions: Poli et al. [5]
adenovirus = conditions: Poli et al. [5]; only naked virus tested
rhinovirus [2] = conditions: Hendley et al. [4]
rhinovirus [3] = conditions: hand lotions containing 2% glutaric acid, versus placebo; Hayden et al. [6]
[4] = frequent application
common colds = conditions: in vivo

N[C@@H](CC(=O)O)C(=O)O [aspartic acid]
effectiveness against viruses which cause colds [1]: effective

O=C(O)CC(O)(CC(=O)O)C(=O)O [citric acid]
antiviral activity against herpes simplex virus (herpes simplex virus): effective | antiviral activity against rhabdovirus (rhabdovirus): effective | antiviral activity against adenovirus (adenovirus): not effective | effectiveness against viruses which cause colds [1]: effective

CCO [ethyl alcohol]
antiviral activity (rhinovirus [2]): performed poorly

O=C(O)CCCC(=O)O [glutaric acid]
inactivating certain serotypes of rhinovirus (rhinovirus [3]): more effective than placebo

O=C(O)CO [glycolic acid]
effectiveness against viruses which cause colds [1]: effective

II [iodine]
irritation of the skin [4]: too irritating to the skin

CC(O)C(=O)O (centres unmarked) [lactic acid]
effectiveness against viruses which cause colds [1]: effective

O=C(O)CC(O)C(=O)O (centres unmarked) [malic acid]
antiviral activity against herpes simplex virus (herpes simplex virus): effective | antiviral activity against rhabdovirus (rhabdovirus): effective | antiviral activity against adenovirus (adenovirus): not effective | effectiveness against viruses which cause colds [1]: effective

CCCCCCCCC(=O)O [pelargonic acid]
effectiveness against viruses which cause colds [1]: effective

CC(=O)C(=O)O [pyruvic acid]
antiviral activity against herpes simplex virus (herpes simplex virus): effective | antiviral activity against rhabdovirus (rhabdovirus): effective | antiviral activity against adenovirus (adenovirus): not effective

CCCCCCCCOC(=O)CC(C(=O)OCCCCCCCC)S(=O)(=O)O.[Na] (centres unmarked) [sodium dioctyl sulfosuccinate]
effectiveness at inactivating cold viruses [1]: demonstrated effectiveness

CCCCCCCCCCCCOS(=O)(=O)[O-].[Na+] [sodium dodecyl sulfate]
effectiveness at inactivating cold viruses [1]: demonstrated effectiveness

O=C(O)CCC(=O)O [succinic acid]
antiviral activity against herpes simplex virus (herpes simplex virus): effective | antiviral activity against rhabdovirus (rhabdovirus): effective | antiviral activity against adenovirus (adenovirus): not effective

CCCCC(=O)O [valeric acid]
effectiveness against viruses which cause colds [1]: effective

[Zn] [zinc]
duration of common colds (common colds): shorten the duration

benzalkonium chloride
antiviral activity (rhinovirus [2]): performed poorly
